Assays:
[1] = Soluble phosphate release into bacterial free medium containing 5% PR
Description: FIG. 4. Changes in soluble phosphate release into the bacterial free medium containing 5% phosphate rock (PR) as P source (P-limiting conditions for bacteria growing in a minimal media with PR). […] The amounts of each added organic acids derived from the data obtained in HPLC analysis and were reported in the Material and Methods section. Data are the mean±SD of five independent biological experiments (p<0.006). The concentration of soluble phosphate was estimated using a modification of Fiske and Subarrow method as described by […] et al. (37). […] Bacterial free medium was also treated with 0.5 mM IAA solution. A media that simulates growth is a media without bacteria or their supernatant. The media comprises only RP and the organic acids used as purified powder commercially available (SIGMA), the organic acids concentration used are that produced by the bacteria when grown in a defined media (with IAA, or without, or from RFD64).

[2] = tested on: S. meliloti cells; assay: Organic acids exuded by S. meliloti cells (HPLC, GC-MS); format: cell-based; conditions: minimal medium containing 5% PR as the sole phosphate source; IAA 0.5 mM where added
Protocol: For phosphate solubilization experiments 5% Moroccan phosphate rock (PR) (Sigma-Aldrich, cat. No. 32) was used as P source. When 5% PR is used as P source to allow bacterial growth this is described as a P-limiting condition. At least five independent experiments were always performed.
The organic acids were determined by HPLC with a reverse-phase Hypersil GOLD C18 (100×4.6 mm) column (Thermo Electron Corporation). The operating conditions and quantification were previously described (20).
Organic acid fractions collected from HPLC were dried, derivatized to their tert-butyldimethylsilyl (tBDMS) derivatives and analysed on a Micromass GCT mass spectrometer (Waters corp, Manchester, UK) coupled to an Agilent 6890 Series gas chromatograph fitted with 7683 auto-sampler (Agilent Technologies, Palo Alto, Calif.) and ZB-5 ms (Phenomenex, Macclesfield, UK) caplillary column (30 m×0.25 mm I.D.×0.25 μm d.f. with 5 m Guardian). Samples were injected using splitless injection technique at 250° C. and a helium gas flow of 2.0 ml min^−1. The oven was set at 70° C. for 2 min, then ramped at 7° C. min^−1 to 350° C. and held for 5 min. The GC interface and source temperatures were set to 250° C. and EI^+ mass spectra were acquired at 70 eV from 0 to 47 min with an acquisition rate of 1 spectra/sec. Chromatographic peaks were identified either from existing mass spectral and retention time data from standards previously analysed at Rothamsted Research LTD (Harpenden Herts, UK) or from the NIST mass spectral database in conjunction with retention data obtained from the literature (30). Determination of the accurate mass, to within 5 ppm, of M^+, M-15^+, M-57^+ was used to verify analyte identifications. The chromatograms obtained for each sample were compared to the derivatization reagent blank.

[3] = tested on: S. meliloti 1021; assay: Microarray gene expression of 1021 cells treated with 0.5 mM compound; conditions: 1021 + 0.5 mM IAA vs untreated 1021; P-sufficient (13 mM);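 note: cells were harvested 3 h after the start of each treatment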
Protocol: For P starvation experiments, cells of 1021 wild-type and RD64 strains were grown at 30° C. to mid exponential phase (OD600=0.6) in RMM broth containing 1% (w/v) mannitol as carbon source and 13 mM P, washed with RMM containing 0 P, resuspended in the same medium and then divided into three cultures. No P (−P), 1.0 mM P (P-starved cells) or 13 mM P (+P cells also named P-sufficient cells) was added into the three cultures, respectively. The P-starved and P-sufficient 1021 wild type cells were treated for 3.0 hours with 0.5 mM IAA. […] To rule out that this bacteria could be partially starved for Trp, RD64 cells were also treated with 0.5 mM Trp and used for microarrays and RT-PCR analyses. […] After 3 hours of each treatment, cell batches were collected, freezed and stored at −80° C. for use in experiments.

[4] = tested on: acid phosphatase; assay: Acid phosphatase activity under P-starved conditions; format: cell-based, S. meliloti; conditions: phosphate starvation; vs 1021 cells; compounds 0.5 mM, 3 hours at 30° C.
[5] = tested on: pho operon genes in S. meliloti cells; assay: Quantitative RT-PCR analysis of pho operon genes; format: cell-based; conditions: compounds 0.5 mM, 3 hours
Protocol: FIG. S1. Quantitative RT-PCR analysis of pho operon genes in S. meliloti cells under P-sufficient conditions (13 mM K-phosphate). The relative expression level was >1 for genes more highly expressed in RD64 and in 1021 cells treated for 3 hours with 0.5 mM IAA, Ind, Trp, ICA and 2,4-D. The relative expression level was <1 for genes more highly expressed in 1021 cells (control). Error bars represent the standard deviation from three independent biological experiments.
FIG. 1. Quantitative RT-PCR analysis of pho operon genes expression in S. meliloti cells under P-starving conditions. The relative expression level was >1 for genes more highly expressed in RD64 and in 1021 cells treated for 3 hours with 0.5 mM IAA, Ind, Trp, ICA and 2,4-D. The relative expression level was <1 for genes more highly expressed in 1021 cells (control). Error bars represent the standard deviation from five independent biological experiments (p<0.05).
Total RNA from P-sufficient and P-starved cells was isolated as previously described (5). cDNA were synthesized with the StrataScript™ reverse transcription reagents (Stratagene) and random hexamers as primers. Quantitative PCR was performed with the Power SYBR PCR Master Mix (Applied Biosystems). Reactions were run on the iCycler iQ (Bio-Rad). The thermo cycling condition were: 15 min at 95° C., 40 cycles of denaturation at 95° C. for 20 s, annealing (20 s) and extension (35 s) at 72° C. Specific primer pairs, designed using the Primer3 software, are shown.
smc02641 and smc00128 were used as housekeeping genes for data normalization in the comparative Ct method as previously described (8). Phosphatase Activity

O=C(O)CCC(O)C(=O)O (centres unmarked) [2-hydroxyglutaric acid]
P solubilization upon exogenous addition of 2-hydroxyglutaric acid ([1]; sterilized medium, level comparable to that released during Mt-RD64 plant growth (115.2 mg/l)): highest

O=C(O)Cc1c[nH]c2ccccc12 [IAA, indole-3-acetic acid]
Organic acid content, Fumarate [2]: 1.7 ± 0.1 mg/L | Organic acid content, Malate [2]: 86 ± 10 mg/L | Organic acid content, Succinate [2]: 864 ± 79 mg/L | concentration of soluble P in bacteria free media ([1]; bacteria free media with addition of IAA (0.5 mM)): negligible | M (log2 ratio of intensities) Mc01302 rplP [3]: −1.862 | M (log2 ratio of intensities) SMa1118 hspC2 [3]: 1.296 | M (log2 ratio of intensities) SMb20893 gguB [3]: 1.754 | M (log2 ratio of intensities) SMb20895 chvE [3]: 1.425 | M (log2 ratio of intensities) SMb20922 smb20922 [3]: 1.711 | M (log2 ratio of intensities) SMb21174 phoT [3]: −1.207 | M (log2 ratio of intensities) SMb21177 phoC [3]: −0.7939 | M (log2 ratio of intensities) SMb21183 htpG [3]: 1.384 | M (log2 ratio of intensities) SMb21197 oppB [3]: 1.111 | M (log2 ratio of intensities) SMc00363 rpmI [3]: −0.9807 | M (log2 ratio of intensities) SMc00364 rplT [3]: −0.715 | M (log2 ratio of intensities) SMc00568 rpsF [3]: −0.7616 | M (log2 ratio of intensities) SMc01103 rbsK [3]: 1.2 | M (log2 ratio of intensities) SMc01169 ald [3]: 3.025 | M (log2 ratio of intensities) SMc01291 rpmD [3]: −1.237 | M (log2 ratio of intensities) SMc01295 rpsH [3]: −0.8996 | M (log2 ratio of intensities) SMc01296 rpsN [3]: −0.8326 | M (log2 ratio of intensities) SMc01301 rpmC [3]: −1.273 | M (log2 ratio of intensities) SMc01309 rplC [3]: −0.7247 | M (log2 ratio of intensities) SMc01319 rplJ [3]: −1.438 | M (log2 ratio of intensities) SMc01628 smc01628 [3]: 0.7123 | M (log2 ratio of intensities) SMc02475 smc02475 [3]: 0.7339 | M (log2 ratio of intensities) SMc02514 smc02514 [3]: 1.764 | M (log2 ratio of intensities) SMc02729 smc02729 [3]: 0.8942 | M (log2 ratio of intensities) SMc02786 smc02786 [3]: 1.11 | M (log2 ratio of intensities) SMc03168 smc03168 [3]: 1.165 | M (log2 ratio of intensities) SMc04087 smc04087 [3]: 1.593 | acid phosphatase activity [4]: increase | expression level of all five pho genes (RT-PCR) ([5]; P-starved conditions, vs control 1021): highly induced | phoB regulatory gene expression (qRT-PCR) ([5]; P-sufficient (13 mM K-phosphate), vs untreated 1021 cells): down-regulated

From patent US9157104B2, “Method to improve phosphate solubilization in plants” (Consiglio Nazionale delle Ricerche, priority 2009, dated 2015)
